Data set [1] concerns Leishmania donovani. The experiment in a line: Antileishmanial activity against amastigotes of Leishmania donovani Khartoum infected in golden hamster assessed as reduction of parasite level in liver at 13 mg/kg bid for 4 days. The class given is functional. Details: scale not given: the % may be the effect or the level left.
In another data set the test system is Syrian golden hamster. The experiment in a line: Toxicity in amastigotes of Leishmania donovani Khartoum infected golden hamster at 208 mg/kg bid for 4 days. Details: dose 208 mg/kg. The note with it: in vivo, 96 h. It counts as organism-based, Mesocricetus auratus.
For data set [2], the system named is Leishmania donovani. The experiment in a line: Ratio of glucantime SD50 to compound SD50 for amastigotes of Leishmania donovani Khartoum infected in golden hamster. It counts as functional.
For data set [3], the system named is Leishmania donovani. The experiment in a line: Antileishmanial activity against amastigotes of Leishmania donovani Khartoum infected in golden hamster assessed as reduction of parasite level in liver at 52 mg/kg bid for 4 days. The class given is functional. Details: scale not given: the % may be the effect or the level left.

For one molecule, Activity and Ratio results are on record in ChEMBL document CHEMBL3243940, “Primaquine analogues: derivatives of 4-amino-2-methoxyacridine” (J Med Chem, 1979).

As for `CCN(CC)CCCCCCNc1cc(OC)cc2c(C)c3ccccc3nc12`, the results for the Activity with Leishmania donovani [1], in the data set on Syrian golden hamster and in the data set on Leishmania donovani [3] were 36%, “Toxic” and 53%, respectively. Further, the Ratio in the data set on Leishmania donovani [2] came to 0.2.
